According to ChEMBL document CHEMBL1201862, “PubChem BioAssay data set” (2004):
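Compound exposure: 48 hours, 5 concentrations, 96-well plates. GI50 is the concentration that inhibits growth by half.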 Calls of active or inactive are those of the source. Rule as the data show it: active = GI50 up to about 1.1 µM and inactive = higher.

How the values were obtained:
Assay in all cases: DTP human tumour cell line panel, 48 h
[1] = test system: UACC-257
[2] = test system: SR
[3] = test system: Malme-3M
[4] = test system: SF-295
[5] = test system: OVCAR-8
[6] = test system: NCI-H522
[7] = test system: M14
[8] = test system: A549
[9] = test system: CAKI-1
[10] = test system: A498
[11] = test system: 786-0
[12] = test system: EKVX
[13] = test system: SF-268
[14] = test system: IGROV-1
[15] = test system: T47D
[16] = test system: HCT-15
[17] = test system: SK-MEL-5
[18] = test system: MDA-N
[19] = test system: ACHN
[20] = test system: MDA-MB-435
[21] = test system: KM12
[22] = test system: HCC 2998
[23] = test system: HOP-62
[24] = test system: OVCAR-4
[25] = test system: U-251
[26] = test system: OVCAR-5
[27] = test system: MOLT-4
[28] = test system: NCI-H226
[29] = test system: OVCAR-3
[30] = test system: NCI/ADR-RES
[31] = test system: NCI-H23
[32] = test system: LOX IMVI
[33] = test system: Hs-578T
[34] = test system: SNB-19
[35] = test system: BT-549
[36] = test system: COLO 205
[37] = test system: RPMI-8226
[38] = test system: RXF 393
[39] = test system: HT-29
[40] = test system: TK-10
[41] = test system: MCF7
[42] = test system: SK-MEL-2
[43] = test system: NCI-H460
[44] = test system: UACC-62
[45] = test system: MDA-MB-231
[46] = test system: UO-31
[47] = test system: DU-145
[48] = test system: HCT-116
[49] = test system: SN12C
[50] = test system: SF-539
[51] = test system: PC-3
[52] = test system: K562
[53] = test system: SW-620
[54] = test system: HL-60
[55] = test system: CCRF-CEM
[56] = test system: SK-OV-3
[57] = test system: SK-MEL-28
[58] = test system: SNB-75
[59] = test system: HOP-92

SMILES: CN(C)CCCN1c2ccccc2CCc2cc([N+](=O)[O-])ccc21
- GI50 [1]: 20.1 µM (inactive)
- GI50 [2]: 32.1 µM (inactive)
- GI50 [3]: 18.8 µM (inactive)
- GI50 [4]: 18.9 µM (inactive)
- GI50 [5]: 24.6 µM (inactive)
- GI50 [6]: 24.5 µM (inactive)
- GI50 [7]: 18.9 µM (inactive)
- GI50 [8]: 24.6 µM (inactive)
- GI50 [9]: 26.8 µM (inactive)
- GI50 [10]: 25.5 µM (inactive)
- GI50 [11]: 24.5 µM (inactive)
- GI50 [12]: 33.9 µM (inactive)
- GI50 [13]: 20 µM (inactive)
- GI50 [14]: 20.3 µM (inactive)
- GI50 [15]: 18.7 µM (inactive)
- GI50 [16]: 34.4 µM
- GI50 [17]: 15.8 µM (inactive)
- GI50 [18]: 19.6 µM (inactive)
- GI50 [19]: 29.4 µM (inactive)
- GI50 [20]: 21.6 µM (inactive)
- GI50 [21]: 26.4 µM (inactive)
- GI50 [22]: 17.7 µM (inactive)
- GI50 [23]: 21.8 µM (inactive)
- GI50 [24]: 24.4 µM (inactive)
- GI50 [25]: 26.3 µM (inactive)
- GI50 [26]: 25.5 µM (inactive)
- GI50 [27]: 26.2 µM (inactive)
- GI50 [28]: 24 µM (inactive)
- GI50 [29]: 20 µM (inactive)
- GI50 [30]: 26.9 µM (inactive)
- GI50 [31]: 26.5 µM (inactive)
- GI50 [32]: 19.1 µM (inactive)
- GI50 [33]: 31.8 µM (inactive)
- GI50 [34]: 28.6 µM (inactive)
- GI50 [35]: 22.4 µM (inactive)
- GI50 [36]: 21 µM (inactive)
- GI50 [37]: 21.5 µM (inactive)
- GI50 [38]: 14.2 µM (inactive)
- GI50 [39]: 21.4 µM (inactive)
- GI50 [40]: 28.5 µM (inactive)
- GI50 [41]: 27.3 µM (inactive)
- GI50 [42]: 21.1 µM (inactive)
- GI50 [43]: 20 µM (inactive)
- GI50 [44]: 14.5 µM (inactive)
- GI50 [45]: 22.2 µM (inactive)
- GI50 [46]: 22.2 µM (inactive)
- GI50 [47]: 24.4 µM (inactive)
- GI50 [48]: 20.5 µM (inactive)
- GI50 [49]: 22.9 µM (inactive)
- GI50 [50]: 24.1 µM (inactive)
- GI50 [51]: 25.4 µM (inactive)
- GI50 [52]: 27.2 µM (inactive)

SMILES: COc1cc(O)c2c(=O)c(OC)c(-c3ccc4c(c3)OCO4)oc2c1
- GI50 [1]: > 100 µM (inactive)
- GI50 [2]: > 100 µM (inactive)
- GI50 [53]: > 100 µM (inactive)
- GI50 [54]: > 100 µM (inactive)
- GI50 [3]: > 100 µM (inactive)
- GI50 [4]: 14.4 µM (inactive)
- GI50 [5]: 6.15 µM (inactive)
- GI50 [6]: 6.53 µM (inactive)
- GI50 [7]: > 85.1 µM (inactive)
- GI50 [8]: > 28.8 µM (inactive)
- GI50 [10]: 38.5 µM (inactive)
- GI50 [11]: 15.3 µM (inactive)
- GI50 [12]: > 60.8 µM (inactive)
- GI50 [13]: 4.31 µM (inactive)
- GI50 [55]: > 100 µM (inactive)
- GI50 [14]: > 52 µM (inactive)
- GI50 [15]: > 100 µM (inactive)
- GI50 [16]: > 100 µM
- GI50 [56]: 13.9 µM (inactive)
- GI50 [17]: > 35.6 µM (inactive)
- GI50 [18]: > 100 µM (inactive)
- GI50 [19]: 17.5 µM (inactive)
- GI50 [20]: > 100 µM (inactive)
- GI50 [21]: > 100 µM (inactive)
- GI50 [22]: > 100 µM (inactive)
- GI50 [23]: 7.76 µM (inactive)
- GI50 [25]: 9.27 µM (inactive)
- GI50 [26]: > 100 µM (inactive)
- GI50 [57]: > 100 µM (inactive)
- GI50 [27]: > 68.9 µM (inactive)
- GI50 [28]: > 57.9 µM (inactive)
- GI50 [30]: > 100 µM (inactive)
- GI50 [31]: > 31.5 µM (inactive)
- GI50 [32]: > 23.2 µM (inactive)
- GI50 [33]: 21.6 µM (inactive)
- GI50 [34]: 5.66 µM (inactive)
- GI50 [35]: 4.04 µM (inactive)
- GI50 [36]: > 100 µM (inactive)
- GI50 [37]: > 100 µM (inactive)
- GI50 [38]: 11.2 µM (inactive)
- GI50 [39]: > 100 µM (inactive)
- GI50 [40]: 36.7 µM (inactive)
- GI50 [41]: > 100 µM (inactive)
- GI50 [42]: 59.7 µM (inactive)
- GI50 [43]: 6.01 µM (inactive)
- GI50 [44]: 78.9 µM (inactive)
- GI50 [45]: > 37.3 µM (inactive)
- GI50 [46]: > 100 µM (inactive)
- GI50 [47]: > 100 µM (inactive)
- GI50 [48]: > 44.4 µM (inactive)
- GI50 [49]: > 100 µM (inactive)
- GI50 [50]: > 27.4 µM (inactive)
- GI50 [51]: > 100 µM (inactive)
- GI50 [58]: 5.9 µM (inactive)

SMILES: Cn1c2ccccc2n2c(N=O)c(-c3ccccc3)nc12
- GI50 [1]: 34.3 µM (inactive)
- GI50 [2]: 55.1 µM (inactive)
- GI50 [53]: 72.8 µM (inactive)
- GI50 [54]: 92.3 µM (inactive)
- GI50 [3]: 69.5 µM (inactive)
- GI50 [4]: 31.1 µM (inactive)
- GI50 [5]: > 100 µM (inactive)
- GI50 [59]: 84.3 µM (inactive)
- GI50 [6]: 57.5 µM (inactive)
- GI50 [7]: 19.6 µM (inactive)
- GI50 [8]: 21.6 µM (inactive)
- GI50 [9]: 39.7 µM (inactive)
- GI50 [10]: > 100 µM (inactive)
- GI50 [11]: > 100 µM (inactive)
- GI50 [12]: 19.4 µM (inactive)
- GI50 [13]: > 100 µM (inactive)
- GI50 [55]: 30.5 µM (inactive)
- GI50 [14]: 25.5 µM (inactive)
- GI50 [15]: 95.9 µM (inactive)
- GI50 [16]: 20.1 µM
- GI50 [56]: 67.3 µM (inactive)
- GI50 [17]: 14.8 µM (inactive)
- GI50 [18]: 55.1 µM (inactive)
- GI50 [19]: > 100 µM (inactive)
- GI50 [20]: 38.8 µM (inactive)
- GI50 [21]: 15.2 µM (inactive)
- GI50 [22]: 11.7 µM (inactive)
- GI50 [23]: 5.52 µM (inactive)
- GI50 [24]: 62.4 µM (inactive)
- GI50 [25]: 49.8 µM (inactive)
- GI50 [26]: 59.3 µM (inactive)
- GI50 [57]: > 100 µM (inactive)
- GI50 [27]: 52.7 µM (inactive)
- GI50 [29]: 30.1 µM (inactive)
- GI50 [30]: 18.4 µM (inactive)
- GI50 [31]: 18.3 µM (inactive)
- GI50 [32]: > 100 µM (inactive)
- GI50 [33]: 70.3 µM (inactive)
- GI50 [34]: 30.1 µM (inactive)
- GI50 [35]: 27.6 µM (inactive)
- GI50 [36]: 10.2 µM (inactive)
- GI50 [37]: 90.8 µM (inactive)
- GI50 [38]: 49.3 µM (inactive)
- GI50 [39]: 27.7 µM (inactive)
- GI50 [40]: 51.8 µM (inactive)
- GI50 [41]: 29 µM (inactive)
- GI50 [42]: 33.1 µM (inactive)
- GI50 [43]: 16.4 µM (inactive)
- GI50 [44]: 56.5 µM (inactive)
- GI50 [45]: 53.6 µM (inactive)
- GI50 [46]: 32.5 µM (inactive)
- GI50 [47]: 23.7 µM (inactive)
- GI50 [48]: 87.9 µM (inactive)
- GI50 [49]: 69.2 µM (inactive)
- GI50 [51]: 96.6 µM (inactive)
- GI50 [52]: > 100 µM (inactive)
- GI50 [58]: 5.08 µM (inactive)
